Columns and labels:
[1] = target: T1, HBV genotype D RNAseH (HRHPL) (Hepatitis B virus genotype D subtype ayw, UniProt P03156, INS679M); test: Oligonucleotide-directed RNAseH cleavage assay, HBV genotype D; type: biochemical; conditions: for Activity vs. HBV Biochemical vs. gtD: class by concentration giving inhibition (10, 20, 60 μM)
T1 construct: HRHPL contains HBV genotype D (Genbank V01460) polymerase residues 684-845; made in house; host or cells: E. coli BL21 codon+
Method: (§1) For the oligonucleotide-directed RNAseH cleavage assay (Gong et al., 2001), 6 μl protein extract (typical protein concentration 2.8 mg/ml) was mixed with 0.5 μg internally ^32P-labeled DRF+ RNA (nucleotides 2401-2605 of the duck HBV genome plus 60 nucleotides of flanking sequences from pBluescript) and 3 μg oligonucleotide D2507- or its corresponding negative control D2526+ on ice in 20 μl under the conditions in Table 1. Some reactions in FIG. 5 employed oligonucleotide D2543M-Sal or its D2453+ negative control as indicated. The reactions were incubated at 42° C. for 90 min. and terminated by addition of Laemmli protein loading buffer and boiling. The samples were resolved by 12% SDS-PAGE, the gels were stained with Coomassie blue to monitor protein loading, and labeled RNA was detected by autoradiography. Candidate inhibitors were dissolved in DMSO and added at the indicated concentrations during assembly of the reactions. Control reactions lacking the compounds contained DMSO as a vehicle control. The RNAseH autoradiograms were scanned and quantified with ImageJ.
(§2) Oligonucleotide-directed RNAseH cleavage assays (Gong et al., 2001) were performed as described (Tavis et al., 2013). Briefly, HBV RNAseH extracts were mixed with a 264 nt-long internally ^32P-labeled RNA plus an excess of a complementary DNA oligonucleotide or its inverse-complement as a negative control in a final concentration of 65 mM Tris pH 8.0, 190 mM NaCl, 5 mM MgCl2, 5 mM dTT, 0.05% NP40, and 6% glycerol. βTJ was dissolved in DMSO and added at the indicated concentrations; the final concentration of DMSO in all reactions was 1%. The reactions were incubated at 42° C. for 90 min. and terminated by addition of Laemmli protein electrophoresis buffer. The samples were resolved by SDS-PAGE, labeled RNA was detected by autoradiography, the autoradiograms were scanned, and the RNA cleavage products were quantified with ImageJ (National Institutes of Health). IC50 values were calculated by non-linear regression using GraphPad Prism (GraphPad Software, Inc.).

human RNAseH1 = target: T2, human RNAseH1 (Homo sapiens, UniProt O60930); test: Oligonucleotide-directed RNAseH assay, recombinant human RNAseH1; type: biochemical; conditions: class by concentration giving inhibition (10, 20, 60 μM)
T2 construct: hexahistidine (N); made in house; host or cells: E. coli BL21 codon+
T2 sequence (O60930 1-286): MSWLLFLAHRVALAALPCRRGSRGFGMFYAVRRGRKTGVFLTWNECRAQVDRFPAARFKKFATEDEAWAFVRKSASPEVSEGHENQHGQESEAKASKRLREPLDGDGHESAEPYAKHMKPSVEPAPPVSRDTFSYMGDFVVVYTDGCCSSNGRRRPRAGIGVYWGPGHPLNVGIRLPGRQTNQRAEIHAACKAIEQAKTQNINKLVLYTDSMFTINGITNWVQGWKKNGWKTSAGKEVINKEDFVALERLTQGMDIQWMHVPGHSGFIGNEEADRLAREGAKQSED
Method: as §1, with “ImageJ. The oligonucleotides were: D2526+([…]; SEQ ID NO:8), D2507-([…]; SEQ ID NO:9), D2453+([…]; SEQ ID NO:10), and D2543M-Sal ([…]; SEQ ID NO:11).” for “ImageJ.”
Therefore, the inventors cloned the human RNAseH1 with an N-terminal hexahistidine tag, expressed it in E. coli, and purified the protein by nickel affinity chromatography. […] This enzyme was active in the oligonucleotide-directed and fluorescent RNAseH assays (FIG. 10B and data not shown). To determine how inhibition of human RNAseH1 compared to inhibition of the HBV RNAseH, the inventor titrated the RNAaseH1 enzyme to yield similar levels of activity as the HBV enzyme, and then the inventor directly compared the ability of compounds #8-12 to inhibit human RNAseH1 and HRHPL at 10 μM. […] Therefore, it is possible to inhibit the HBV RNAseH without inhibiting human RNAseH1.
as §2

HBV = HBV genomic replication assays (Table 2); type: cell-based, Hepatitis B virus; conditions: class by active concentration
Method: Huh7 cells were maintained in Dulbecco's modified Eagle's medium with 10% fetal bovine serum at 37° C. in 5% CO2. Cells were seeded into 60 mm dishes and transfected at 70% confluency with 2.6 μg of plasmids using TransIT-LT1 (Mirus, Inc.). Test compounds were added the morning following transfection at 10 or 50 μM, and fresh medium containing the compounds was provided every 1-2 days. Four or five days post-transfection HBV cores were isolated by lysis of the cells in 10 mM Tris pH 7.5, 1 mM EDTA, 0.25% NP40, 50 mM NaCl, and 8% sucrose followed by sedimentation through a 30% sucrose cushion as described (Travis, et al., 1998). Viral DNAs were isolated from cytoplasmic core particle preparations by proteinase K digestion followed by phenol/chloroform extraction as described (Gong et al., 2001). Duplicate aliquots of the nucleic acids were treated with 2 U E. coli DNAse-free RNAseH (Invitrogen) at 37° C. for 30 min. or were mock treated. The nucleic acid samples were resolved by electrophoresis on 1.2% agarose gels and detected by Southern blotting with ^32P-labeled HBV DNA as a probe. […]

T1 sequence (P03156 680-832, added parts left off, stated change not applied): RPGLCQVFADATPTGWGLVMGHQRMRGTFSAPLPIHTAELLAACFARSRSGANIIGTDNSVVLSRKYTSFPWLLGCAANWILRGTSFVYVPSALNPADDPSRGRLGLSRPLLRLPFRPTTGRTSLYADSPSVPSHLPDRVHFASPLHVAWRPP

Row | SMILES | Activity vs. HBV Biochemical vs. gtD [1] | Activity vs. human RNAseH1 (human RNAseH1) | also measured
1 | O=Nc1ccc(O)c(=O)cc1 [Compound 50, 5-nitrosotropolone] | ++ (++ inhibition at 20 μM) | − (− no inhibition at 60 μM) | Activity vs. HBV Genomic Replication (HBV): + (+, activity detectable at >10 μM)
2 | Cn1c(C(C)(C)N)nc(C(=O)NCc2ccc(F)cc2)c(O)c1=O [Compound 77, reference compound] | − (− no inhibition at 60 μM) | – | –
3 | CCN1C[C@H](C)n2c(c(O)c3c(=O)n(Cc4ccc(F)c(Cl)c4)nc(C(=O)NC)c32)C1=O [Compound 74, reference compound] | − (− no inhibition at 60 μM) | – | –
4 | CCOC(=O)c1sc(NC(=O)CSc2nc(C)cc(-c3ccccc3)n2)c(C#N)c1C [Compound 26] | − (− no inhibition at 60 μM) | – | –
5 | O=c1ccccc(Br)c1O [Compound 54, 3-bromotropolone] | − (− no inhibition at 60 μM) | – | –
6 | CCOC(=O)c1sc(NC(=O)CSc2ccc(Cl)cc2)c(C#N)c1C [Compound 37] | − (− no inhibition at 60 μM) | – | –
7 | Cc1cc(C)c(OC(=O)c2ccc(Cl)cc2)c(=O)c(C)c1 [Compound 59] | − (− no inhibition at 60 μM) | + (+ inhibition at 60 μM) | –
8 | CCOC(=O)c1sc(NC(=O)CSc2nnc[nH]2)c(C#N)c1C [Compound 28] | − (− no inhibition at 60 μM) | + (+ inhibition at 60 μM) | –
9 | O=C(Nc1ccc(O)c(=O)cc1)c1ccccc1 [Compound 52] | − (− no inhibition at 60 μM) | − (− no inhibition at 60 μM) | –
10 | CCOC(=O)c1cc2ccccc2n(O)c1=O [Compound 42] | − (− no inhibition at 60 μM) | + (+ inhibition at 60 μM) | –
11 | O=c1cccccc1Cl [Compound 57, 2-chlorotropone] | − (− no inhibition at 60 μM) | – | –
12 | Cc1ccc(S(=O)(=O)Oc2cccccc2=O)cc1 [Compound 61] | − (− no inhibition at 60 μM) | ++ (++ inhibition at 20 μM) | –
13 | N#Cc1c(NC(=O)CSc2nnc(Cc3ccccc3)o2)sc2c1CCCC2 [Compound 25] | − (− no inhibition at 60 μM) | – | –
14 | Cc1cc(C)n(O)c(=O)c1C#N [Compound 44] | − (− no inhibition at 60 μM) | − (− no inhibition at 60 μM) | –
15 | CCn1cc(C(=O)O)c(=O)c2ccc(C)nc21 [Compound 70] | − (− no inhibition at 60 μM) | – | –
16 | CCOC(=O)c1sc(NC(=O)CSc2nnc(-c3ccc(Cl)cc3)o2)c(C#N)c1C [Compound 24] | − (− no inhibition at 60 μM) | – | –

Row | SMILES | Activity vs. HBV Biochemical vs. gtD [1] | Activity vs. human RNAseH1 (human RNAseH1) | also measured
17 | N#Cc1c(NC(=O)CSc2nnc(C3CC3)o2)sc2c1CCC2 [Compound 32] | − (− no inhibition at 60 μM) | – | –
18 | CC(=O)NC(CCc1ccc(Cl)c(Cl)c1)c1cccc(O)c(=O)c1 (stereo not drawn) [Compound 55] | + (+ inhibition at 60 μM) | + (+ inhibition at 60 μM) | –
19 | CC(C)S[C@@H]1O[C@H](CO)[C@H](O)[C@H](O)[C@H]1O [IPTG, reference compound] | – | – | RNAseH activity of HRHPL relative to the DMSO vehicle control ([1]; irrelevant compounds at 10 μM, pooled): 52±9%
20 | CCn1cc(C(=O)O)c(=O)c2cc3c(cc21)OCO3 [Compound 65] | − (− no inhibition at 60 μM) | – | –
21 | CC(C)=CCc1ccc(O)c(=O)cc1C(C)C [Compound 49, Nootkatin] | ++ (++ inhibition at 20 μM) | − (− no inhibition at 60 μM) | –
22 | O=C(Oc1cccccc1=O)c1ccccc1 [Compound 62] | + (+ inhibition at 60 μM) | – | –
23 | CCOC(=O)c1sc(NC(=O)CSc2nccc(C)n2)c(C#N)c1C [Compound 27] | − (− no inhibition at 60 μM) | – | –
24 | Cc1cc(C(F)(F)F)c(C#N)c(=O)[nH]1 [Compound 19] | − (− no inhibition at 60 μM) | – | –
25 | O=C(O)c1cn(C2CC2)c2cc(Cl)c(F)cc2c1=O [Compound 66] | − (− no inhibition at 60 μM) | – | –
26 | O=C(Oc1cccccc1=O)c1ccc(Cl)cc1 [Compound 63] | − (− no inhibition at 60 μM) | – | –
27 | CC1COc2c(N3CCN(C)CC3)c(F)cc3c(=O)c(C(=O)O)cn1c23 (stereo not drawn) [Compound 68] | − (− no inhibition at 60 μM) | – | –
28 | Cc1ccc2oc(=O)c(C#N)c(C)c2c1 [Compound 33] | − (− no inhibition at 60 μM) | – | –
29 | N#Cc1cc2ccccc2oc1=N [Compound 21] | − (− no inhibition at 60 μM) | – | –
30 | O=C(Oc1cccccc1=O)c1ccc([N+](=O)[O-])cc1 [Compound 51, tropolone p-nitrobenzoate] | + (+ inhibition at 60 μM) | – | –
31 | Cc1cc(C2CCCCC2)n(O)c(=O)c1 [Compound 41, Ciclopirox, reference compound] | − (− no inhibition at 60 μM) | + (+ inhibition at 60 μM) | –

— patent US10329542B2, “HBV RNAse H purification and enzyme inhibitors” (Saint Louis University, priority 2012, dated 2019)
